US9221766B2, “Compounds as diacylglycerol acyltransferase inhibitors” (GlaxoSmithKline LLC, priority 2012, dated 2015)

Molecular target: T1, Human DGAT1 (Homo sapiens, UniProt O75907)
T1 construct: made in house; host or cells: Sf9 insect cells (baculovirus); microsomes used as enzyme
T1 sequence (O75907 1-488): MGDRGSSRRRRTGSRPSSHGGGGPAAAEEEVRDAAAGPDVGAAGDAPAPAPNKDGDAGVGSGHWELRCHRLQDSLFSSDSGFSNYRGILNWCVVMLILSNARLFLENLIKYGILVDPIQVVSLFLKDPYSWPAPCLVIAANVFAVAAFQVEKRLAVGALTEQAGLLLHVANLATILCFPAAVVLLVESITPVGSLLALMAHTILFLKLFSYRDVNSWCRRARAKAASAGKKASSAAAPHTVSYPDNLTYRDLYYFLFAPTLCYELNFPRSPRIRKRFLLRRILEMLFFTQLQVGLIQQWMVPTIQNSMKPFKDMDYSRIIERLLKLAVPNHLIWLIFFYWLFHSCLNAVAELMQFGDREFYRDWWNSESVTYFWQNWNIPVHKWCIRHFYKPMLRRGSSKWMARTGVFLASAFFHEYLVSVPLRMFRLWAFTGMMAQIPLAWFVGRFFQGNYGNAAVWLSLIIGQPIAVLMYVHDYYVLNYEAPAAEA
Test: human DGAT1 lipid extraction (LE) assay, inhibition of triacylglycerol product formation
Assay type: biochemical
Settings: human DGAT1 microsomes from Sf9 cells, read-out: hDGAT LE IC50
Experimental: Human DGAT1 was expressed in Sf9 insect cells using a baculovirus expression system. Microsomes were prepared and used as enzyme for in vitro inhibition testing in either of two formats measuring production of coenzyme A or tridecanoylglycerol product, respectively. All steps were performed at 21-23° C. All data for DGAT1 inhibition by test compounds were collected under conditions where product formation was linear with reaction time.
For inhibition of triacylglycerol product formation, 11 uL reactions were run in white Polyplate-384 (PerkinElmer6007300) starting with a 30 minute pre-reaction incubation of 5 uL of 2.2× enzyme and 1 uL of 100% DMSO containing test compound or control compound, {4-[4-(4-amino-7,7-dimethyl-7H-pyrimido[4,5-b][1,4]oxazin-6-yl)phenyl]cyclohexyl}acetic acid. Some assays were performed with inclusion of didecanoylglycerol in the pre-reaction incubation of test compounds and enzyme. Reactions were initiated after 30 minute pre-reaction incubation via addition of 5 uL of 2.2× substrate. Final reaction conditions consisted of 50 mM HEPES pH 7.5, 2 mM MgCl2, 1 mM CHAPS, 25 uM didecanoylglycerol, 0.5 uM decanoyl-CoA, 0.3 nCi/uL [^14C-]decanoyl-CoA or 0.5 nCi/uL [^3H]-decanoyl-CoA, 0.05-4 ug/mL microsomal protein, and 1% DMSO. Following 60 minute reaction incubation, reactions were stopped with 40 uL of 45% isopropanol and 50 mM sodium carbonate in water and mixed. Extraction of tridecanoylglycerol product was accomplished via addition of 30 uL Microscint-E (Perkin Elmer) and 2 hours of incubation (sealed). Plates were read on a Microbeta Microplate reader Inhibition was normalized to controls containing DMSO or 10 uM {4-[4-(4-amino-7,7-dimethyl-7H-pyrimido[4,5-b][1,4]oxazin-6-yl)phenyl]cyclohexyl}acetic acid. IC50s were fitted using GraphPad Prism to a sigmoidal dose response.

Row | Compound | IC50 [nM]
1 | CC1(CC(=O)O)CCc2cc(-c3ccc(Nc4ccc(C(F)(F)F)nc4)cn3)ccc2C1=O (single isomer, unassigned) [Example 3, 2-(2-Methyl-1-oxo-6-(5-(6-(trifluoromethyl)pyridin-3-ylamino)pyridin-2-yl)-1,2,3,4-tetrahydronaphthalen-2-yl)acetic acid] | 500 to 10000
2 | O=C(O)CC1(CC(F)(F)F)CCc2cc(-c3ccc(Nc4cccc(Cl)c4)cn3)ccc2C1=O (single isomer, unassigned) [Example 11, 2-(6-(5-(3-chlorophenylamino)pyridin-2-yl)-1-oxo-2-(2,2,2-trifluoroethyl)-1,2,3,4-tetrahydronaphthalen-2-yl)acetic acid] | 100 to 500
3 | Cc1ccc(Nc2ccc(-c3ccc4c(c3)CCC(CC(=O)O)(CC(F)(F)F)C4=O)nc2)nc1 (single isomer, unassigned) [Example 13, 2-(6-(5-(5-methylpyridin-2-ylamino)pyridin-2-yl)-1-oxo-2-(2,2,2-trifluoroethyl)-1,2,3,4-tetrahydronaphthalen-2-yl)acetic acid] | 100 to 500
4 | O=C(O)CC1(CC(F)(F)F)CCc2cc(-c3cnc(Nc4ccc(C(F)(F)F)nc4)cn3)ccc2C1=O (single isomer, unassigned) [Example 15, 2-(1-oxo-2-(2,2,2-trifluoroethyl)-6-(5-(6-(trifluoromethyl)pyridin-3-ylamino)pyrazin-2-yl)-1,2,3,4-tetrahydronaphthalen-2-yl)acetic acid] | 500 to 10000
5 | Cc1ccc(Nc2cnc(-c3ccc4c(c3)CCC(CC(=O)O)(CC(F)(F)F)C4=O)cn2)nc1 (single isomer, unassigned) [Example 16, 2-(6-(5-(5-methylpyridin-2-ylamino)pyrazin-2-yl)-1-oxo-2-(2,2,2-trifluoroethyl)-1,2,3,4-tetrahydronaphthalen-2-yl)acetic acid] | 100 to 500
6 | O=C(O)CC1(CC(F)(F)F)CCc2cc(-c3cnc(Nc4ccc(Cl)cn4)cn3)ccc2C1=O (single isomer, unassigned) [Example 17, 2-(6-(5-(5-chloropyridin-2-ylamino)pyrazin-2-yl)-1-oxo-2-(2,2,2-trifluoroethyl)-1,2,3,4-tetrahydronaphthalen-2-yl)acetic acid] | 100 to 500
7 | O=C(O)CC1(CC(F)(F)F)CCc2cc(-c3cnc(Nc4ccc(Cl)cn4)cn3)ccc2C1=O (single isomer, unassigned) [Example 18, 2-(6-(5-(5-chloropyridin-2-ylamino)pyrazin-2-yl)-1-oxo-2-(2,2,2-trifluoroethyl)-1,2,3,4-tetrahydronaphthalen-2-yl)acetic acid] | 100 to 500
8 | O=C(O)CC1(CC(F)(F)F)CCc2cc(-c3cnc(Nc4ccc5c(c4)OCO5)cn3)ccc2C1=O (single isomer, unassigned) [Example 19, 2-(6-(5-(benzo[d][1,3]dioxol-5-ylamino)pyrazin-2-yl)-1-oxo-2-(2,2,2-trifluoroethyl)-1,2,3,4-tetrahydronaphthalen-2-yl)acetic acid] | 100 to 500
9 | O=C(O)CC1(CC(F)(F)F)CCc2cc(-c3cnc(Nc4ccc5c(c4)OCO5)cn3)ccc2C1=O (single isomer, unassigned) [Example 20, 2-(6-(5-(benzo[d][1,3]dioxol-5-ylamino)pyrazin-2-yl)-1-oxo-2-(2,2,2-trifluoroethyl)-1,2,3,4-tetrahydronaphthalen-2-yl)acetic acid] | 500 to 10000

Now from value to compound:

Row | IC50 [nM] | Compound
10 | ≤ 100 | O=C(O)CC1(CC(F)(F)F)CCc2cc(-c3ccc(Nc4ccc(C(F)(F)F)nc4)cn3)ccc2C1=O (single isomer, unassigned) [Example 1, 2-(1-Oxo-2-(2,2,2-trifluoroethyl)-6-(5-(6-(trifluoromethyl)pyridin-3-ylamino)pyridin-2-yl)-1,2,3,4-tetrahydronaphthalen-2-yl)acetic acid]
11 | ≤ 100 | O=C(O)CC1(CC(F)(F)F)CCc2cc(-c3ccc(Nc4ccc(Cl)cc4)cn3)ccc2C1=O (single isomer, unassigned) [Example 2, 2-(6-(5-(4-Chlorophenylamino)pyridin-2-yl)-1-oxo-2-(2,2,2-trifluoroethyl)-1,2,3,4-tetrahydronaphthalen-2-yl)acetic acid]
12 | ≤ 100 | CCC1(CC(=O)O)CCc2cc(-c3ccc(Nc4ccc(C(F)(F)F)nc4)cn3)ccc2C1=O (single isomer, unassigned) [Example 4, 2-(2-Ethyl-1-oxo-6-(5-(6-(trifluoromethyl)pyridin-3-ylamino)pyridin-2-yl)-1,2,3,4-tetrahydronaphthalen-2-yl)acetic acid]
13 | 100 to 500 | CCC1(CC(=O)O)CCc2cc(-c3ccc(Nc4ccc(C(F)(F)F)nc4)cn3)ccc2C1=O (single isomer, unassigned) [Example 5, 2-(2-ethyl-1-oxo-6-(5-(6-(trifluoromethyl)pyridin-3-ylamino)pyridin-2-yl)-1,2,3,4-tetrahydronaphthalen-2-yl)acetic acid]
14 | ≤ 100 | O=C(O)CC1(CC(F)(F)F)CCc2cc(-c3ccc(Nc4ccc(Cl)cc4)cn3)ccc2C1=O (single isomer, unassigned) [Example 6, 2-(6-(5-(4-chlorophenylamino)pyridin-2-yl)-1-oxo-2-(2,2,2-trifluoroethyl)-1,2,3,4-tetrahydronaphthalen-2-yl)acetic acid]
15 | ≤ 100 | O=C(O)CC1(CC(F)(F)F)CCc2cc(-c3ccc(Nc4ccc(Cl)cn4)cn3)ccc2C1=O (single isomer, unassigned) [Example 7, 2-(6-(5-(5-chloropyridin-2-ylamino)pyridin-2-yl)-1-oxo-2-(2,2,2-trifluoroethyl)-1,2,3,4-tetrahydronaphthalen-2-yl)acetic acid]
16 | ≤ 100 | O=C(O)CC1(CC(F)(F)F)CCc2cc(-c3ccc(Nc4ccc(Cl)cn4)cn3)ccc2C1=O (single isomer, unassigned) [Example 8, 2-(6-(5-(5-chloropyridin-2-ylamino)pyridin-2-yl)-1-oxo-2-(2,2,2-trifluoroethyl)-1,2,3,4-tetrahydronaphthalen-2-yl)acetic acid]
17 | 100 to 500 | Cc1ccc(Nc2ccc(-c3ccc4c(c3)CCC(CC(=O)O)(CC(F)(F)F)C4=O)nc2)cc1 (single isomer, unassigned) [Example 9, 2-(1-oxo-6-(5-(p-tolylamino)pyridin-2-yl)-2-(2,2,2-trifluoroethyl)-1,2,3,4-tetrahydronaphthalen-2-yl)acetic acid]
18 | ≤ 100 | O=C(O)CC1(CC(F)(F)F)CCc2cc(-c3ccc(Nc4ccc(F)c(F)c4)cn3)ccc2C1=O (single isomer, unassigned) [Example 10, 2-(6-(5-(3,4-difluorophenylamino)pyridin-2-yl)-1-oxo-2-(2,2,2-trifluoroethyl)-1,2,3,4-tetrahydronaphthalen-2-yl)acetic acid]
19 | ≤ 100 | Cc1ccc(Nc2ccc(-c3ccc4c(c3)CCC(CC(=O)O)(CC(F)(F)F)C4=O)nc2)nc1 (single isomer, unassigned) [Example 12, 2-(6-(5-(5-methylpyridin-2-ylamino)pyridin-2-yl)-1-oxo-2-(2,2,2-trifluoroethyl)-1,2,3,4-tetrahydronaphthalen-2-yl)acetic acid]
20 | ≤ 100 | O=C(O)CC1(CC(F)(F)F)CCc2cc(-c3cnc(Nc4ccc(C(F)(F)F)nc4)cn3)ccc2C1=O (single isomer, unassigned) [Example 14, 2-(1-Oxo-2-(2,2,2-trifluoroethyl)-6-(5-(6-(trifluoromethyl)pyridin-3-ylamino)pyrazin-2-yl)-1,2,3,4-tetrahydro-naphthalen-2-yl)acetic acid]
